{"source": "patent US9334279B2", "about": "“Hepatitis C virus inhibitors” (BRISTOL-MYERS SQUIBB COMPANY, priority 2012, dated 2016)", "key": {"[1]": {"conditions": "rcm bond, 15-membered ring, Hoveyda-Grubbs II"}, "[2]": {"system": "HCV GT1b(Con1) replicon", "assay": "HCV replicon luciferase reporter assay, genotype 1b", "assay_type": "cell-based, HCV genotype 1b", "conditions": "Hepatitis C virus, 72 h, HUH-7 cells, Renilla luciferase, 3 days incubation, read-out: LE_1b (EC50, range)", "how_it_was_run": "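HUH-7 cells stably carrying a Con1 GT1b replicon with Renilla luciferase and Ser1179Ile adaptive mutation; 3.0×10^3 cells/well, DMEM 4% FCS, 0.5% DMSO, twenty-point 3-fold titration, 3 days 37 °C. Luminescence 2 h after 7.5 μM EnduRen; EC50 by four-parameter logistic fit. CC50 from multiplexed Cell Titer-Blue fluorescence (8 h).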"}, "[3]": {"system": "HCV GT1a(H77) replicon", "assay": "HCV replicon luciferase reporter assay, genotype 1a", "assay_type": "cell-based, HCV genotype 1a", "conditions": "Hepatitis C virus, 72 h, HUH-7 cells, Renilla luciferase, 3 days incubation, read-out: LE_1a (EC50, range)", "how_it_was_run": "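Huh-7 cells stably carried a GT1a(H77) Renilla luciferase replicon with NS3 P1496L and NS5A S2204I adaptive mutations. Luminescence was read after 2 h with 7.5 μM EnduRen, and EC50 came from a four-parameter logistic fit; CC50 came from multiplexed Cell Titer-Blue (8 h).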"}}, "note": "Where two headings read alike, the source gives them in different places.", "data": [{"smiles": "CC1CC/C=C\\[C@@H]2C[C@@]2(C(=O)NS(=O)(=O)C2(C)CC2)NC(=O)[C@@H]2C[C@@H](O)CN2C(=O)[C@@H](NC(=O)OC(C)(C)C)[C@H](C)C1", "note": "(stereo partly shown)", "values": [{"measurement": "ring closure, isolated yield", "setting": "[1]; from C=CCCC(C)C[C@@H](C)[C@H](NC(=O)OC(C)(C)C)C(=O)N1C[C@H](O)C[C@H]1C(=O)N[C@]1(C(=O)NS(=O)(=O)C2(C)CC2)C[C@H]1C=C, 1,2-dichloroethane, 8.8 mM, 80.0 °C, 2.0 h", "value": 70, "unit": "%"}]}, {"smiles": "CC[C@@H]1CC(C)CC/C=C\\[C@@H]2C[C@@]2(C(=O)NS(=O)(=O)C2CC2)NC(=O)[C@@H]2C[C@@H](O)CN2C(=O)[C@H]1NC(=O)OC(C)(C)C", "note": "(stereo partly shown)", "values": [{"measurement": "ring closure, isolated yield", "setting": "[1]; from C=CCCC(C)C[C@@H](CC)[C@H](NC(=O)OC(C)(C)C)C(=O)N1C[C@@H](O)CC1C(=O)N[C@]1(C(=O)NS(=O)(=O)C2CC2)C[C@H]1C=C, dichloroethane, 26.6 mM, 95.0 °C, 16.0 h", "value": 47, "unit": "%"}]}, {"smiles": "C[C@@H]1CC/C=C\\[C@@H]2C[C@@]2(C(=O)NS(=O)(=O)C2(C)CC2)NC(=O)[C@@H]2C[C@@H](Oc3ccc(-c4nccs4)cn3)CN2C(=O)[C@@H](NC(=O)OC(C)(C)C(F)(F)F)[C@H](C)C1", "note": "[Compound 1064, 1,1,1-trifluoro-2-methylpropan-2-yl ((2R,6S,7R,9R,13aS,14aR,16aS,Z)-7,9-dimethyl-14a-(((1-methylcyclopropyl)sulfonyl)carbamoyl)-5,16-dioxo-2-((5-(thiazol-2-yl)pyridin-2-yl)oxy)-1,2,3,5,6,7,8,9,10,11,13a,14,14a,15,16,16a-hexadecahydrocyclopropa[e]pyrrolo[1,2-a][1,4]diazacyclopentadecin-6-yl)carbamate]", "values": [{"measurement": "EC50", "setting": "[2]", "value": "0.1 to 0.5", "unit": "nM"}, {"measurement": "EC50", "setting": "[3]", "value": "1.01 to 5", "unit": "nM"}]}]}
